Experimental findings from PubChem BioAssay AID330 (DTP/NCI, 2004) are described below.

In this assay the test system is P388 leukemia ip, CD2F1 mice, survival T/C. The assay is described as follows: NCI In Vivo Anticancer Drug Screen. Data for tumor model P388 Leukemia (intraperitoneal) in CD2F1 (CDF1) mice. The settings on record: endpoint: median survival time, higher = longer survival. The protocol:
The antitumor activity of compounds was measured in mice bearing transplantable tumors. Survival or tumor size were measured and the results are expressed as the measurement made in the treated group (T) divided by the measurement made in the vehicle treated control group (C). The tumor model used in this assay is P388 Leukemia (intraperitoneal) in CD2F1 (CDF1) mice

Where [1] appears, read: dose: 50.0 mg/kg/injection, schedule: Q01DX005 (ip), vehicle: saline + Tween-80 + alcohol.
Where [2] appears, read: dose: 100.0 mg/kg/injection, schedule: Q01DX005 (ip), vehicle: saline + Tween-80 + alcohol.
The mark [3] stands for this setting: dose: 200.0 mg/kg/injection, schedule: Q01DX005 (ip), vehicle: saline + Tween-80 + alcohol.
The mark [4] stands for this setting: dose: 60.0 mg/kg/injection, schedule: Q01DX005 (ip), vehicle: saline.
The mark [5] stands for this setting: dose: 60.0 mg/kg/injection, schedule: Q01DX005 (ip), vehicle: saline with Tween-80.
Where [6] appears, read: dose: 120.0 mg/kg/injection, schedule: Q01DX005 (ip), vehicle: saline with Tween-80.
The mark [7] stands for this setting: dose: 240.0 mg/kg/injection, schedule: Q01DX005 (ip), vehicle: saline with Tween-80.
The mark [8] stands for this setting: dose: 12.5 mg/kg/injection, schedule: Q01DX009 (ip), vehicle: saline.
Where [9] appears, read: dose: 50.0 mg/kg/injection, schedule: Q01DX009 (ip), vehicle: saline.

Each structure is given as a SMILES string. “And” between values parts separate entries of the source, which are not always exact repeats. Equal entries are not always repeated. Inconclusive results and toxic doses are left out.

In the case of `CC(=O)OC1CC2C(C)(C)OC3CC(=O)OCC32C2CCC3(C)C(=CCC3c3ccoc3)C12C` (stereo unspecified), the T/C reads like this: (dose: 0.5 mg/kg/injection, schedule: Q01DX005 (ip), vehicle: saline + alcohol) 108 % of control; (dose: 1.0 mg/kg/injection, schedule: Q01DX005 (ip), vehicle: saline + alcohol) 98 % of control; (dose: 2.0 mg/kg/injection, schedule: Q01DX005 (ip), vehicle: saline + alcohol) 106 % of control; (dose: 4.0 mg/kg/injection, schedule: Q01DX005 (ip), vehicle: saline + alcohol) 111 % of control; (dose: 8.0 mg/kg/injection, schedule: Q01DX005 (ip), vehicle: saline + alcohol) 108 % of control.

For `FC(F)(F)c1ccc(C(Nc2nncs2)Nc2nncs2)cc1`, the T/C was 93 % of control (dose: 50.0 mg/kg/injection, schedule: Q01DX005 (ip), vehicle: saline with Tween-80); 96 % of control (dose: 100.0 mg/kg/injection, schedule: Q01DX005 (ip), vehicle: saline with Tween-80); 105 % of control (dose: 200.0 mg/kg/injection, schedule: Q01DX005 (ip), vehicle: saline with Tween-80).

With `Cc1nc(NN)nc(N)c1S(=O)(=O)Cc1ccc(Cl)cc1`, the T/C (dose: 100.0 mg/kg/injection, schedule: Q04DX002 (ip), vehicle: saline) was 94 % of control; the T/C (dose: 200.0 mg/kg/injection, schedule: Q04DX002 (ip), vehicle: saline) is 90 % of control; the T/C (dose: 400.0 mg/kg/injection, schedule: Q04DX002 (ip), vehicle: saline) was 90 % of control.

Turning to `c1ccc(N2C3Sc4ncccc4C2Sc2ncccc23)cc1`, the T/C is, setting by setting: (dose: 50.0 mg/kg/injection, schedule: Q01DX009 (ip), vehicle: Klucel (hydroxypropylcellulose) (HPC)) 104 % of control; (dose: 100.0 mg/kg/injection, schedule: Q01DX009 (ip), vehicle: Klucel (hydroxypropylcellulose) (HPC)) 94 % of control; (dose: 200.0 mg/kg/injection, schedule: Q01DX009 (ip), vehicle: Klucel (hydroxypropylcellulose) (HPC)) 96 % of control.

For the molecule `Nc1ccc2nc3ccc(=O)cc-3n(-c3ccccc3)c2c1`, the T/C was 115 % of control (dose: 0.5 mg/kg/injection, schedule: Q01DX009 (ip), vehicle: saline); 124 % of control (dose: 1.0 mg/kg/injection, schedule: Q01DX009 (ip), vehicle: saline); 102 % of control (dose: 1.25 mg/kg/injection, schedule: Q01DX009 (ip), vehicle: saline); 104 % of control (dose: 2.5 mg/kg/injection, schedule: Q01DX009 (ip), vehicle: saline); 105 % of control (dose: 5.0 mg/kg/injection, schedule: Q01DX009 (ip), vehicle: saline); 119 % of control (dose: 20.0 mg/kg/injection, schedule: Q01DX009 (ip), vehicle: saline). Also, the T/C (dose: 40.0 mg/kg/injection, schedule: Q01DX009 (ip), vehicle: saline) is 114 % of control.

For the molecule `Oc1cc(O)cc(/C=C/c2ccc(O)cc2O)c1`, the T/C reads like this: (dose: 2.0 mg/kg/injection, schedule: Q01DX009 (ip), vehicle: Klucel (hydroxypropylcellulose) (HPC)) 102 % of control; (dose: 4.0 mg/kg/injection, schedule: Q01DX009 (ip), vehicle: Klucel (hydroxypropylcellulose) (HPC)) 105 % of control; (dose: 8.0 mg/kg/injection, schedule: Q01DX009 (ip), vehicle: Klucel (hydroxypropylcellulose) (HPC)) 101 % of control; (dose: 16.0 mg/kg/injection, schedule: Q01DX009 (ip), vehicle: Klucel (hydroxypropylcellulose) (HPC)) 94 % of control; (dose: 32.0 mg/kg/injection, schedule: Q01DX009 (ip), vehicle: Klucel (hydroxypropylcellulose) (HPC)) 101 % of control.

For `NC(=O)c1ccc(N=Nc2c(O)c3ccccc3[nH]c2=O)cc1`, the T/C runs as follows: under setting [1], 105 % of control; under setting [2], 93 % of control; under setting [3], 89 % of control.

With `CCCCNC(C)(C)C(SS)c1ccc(C(F)(F)F)cc1` (stereo unspecified), the T/C is, setting by setting: (dose: 50.0 mg/kg/injection, schedule: Q04DX003 (ip), vehicle: other) 100 % of control; (dose: 100.0 mg/kg/injection, schedule: Q04DX003 (ip), vehicle: other) 104 % of control.

With `Cc1ccoc1OP(=O)(N(C)C)N(C)C`, the T/C was 102 % of control (dose: 15.0 mg/kg/injection, schedule: Q01DX005 (ip), vehicle: saline); 100 % of control (dose: 30.0 mg/kg/injection, schedule: Q01DX005 (ip), vehicle: saline); 108 % of control under setting [4].

Consider `COC(=O)C1=C(O)c2cc(C)c(C)c(C#N)c2NC(=O)C1`, for which the T/C under setting [5] is 95 % of control, the T/C under setting [6] is 97 % of control and the T/C under setting [7] was 93 % of control.

As for `CCOCC1OCCCO1`, the T/C by setting is: under setting [4], 104 % of control; (dose: 120.0 mg/kg/injection, schedule: Q01DX005 (ip), vehicle: saline) 103 % of control; (dose: 240.0 mg/kg/injection, schedule: Q01DX005 (ip), vehicle: saline) 103 % of control.

Take `CCCCCC(CN(C)C)C(=O)/C=C/c1ccc(O)cc1` (stereo unspecified): the T/C runs as follows: under setting [8], 88 % of control; (dose: 25.0 mg/kg/injection, schedule: Q01DX009 (ip), vehicle: saline) 89 % of control; under setting [9], 101 % of control and 93 % of control; (dose: 100.0 mg/kg/injection, schedule: Q01DX009 (ip), vehicle: saline) 113 % of control.

On to `c1ccc(Cc2cccc[n+]2C(c2ccccc2)c2ccccc2)cc1`, for which the T/C is, setting by setting: (dose: 6.25 mg/kg/injection, schedule: Q01DX009 (ip), vehicle: Klucel (hydroxypropylcellulose) (HPC)) 105 % of control; (dose: 12.5 mg/kg/injection, schedule: Q01DX009 (ip), vehicle: Klucel (hydroxypropylcellulose) (HPC)) 87 % of control.

Consider `Cc1ccc(/C=C/[N+](=O)[O-])cc1`, for which the T/C by setting is: (dose: 6.25 mg/kg/injection, schedule: Q01DX009 (ip), vehicle: saline sonified) 100 % of control; (dose: 12.5 mg/kg/injection, schedule: Q01DX009 (ip), vehicle: saline sonified) 100 % of control; (dose: 25.0 mg/kg/injection, schedule: Q01DX009 (ip), vehicle: saline sonified) 100 % of control.

For `Cc1ccc(C(=O)Nc2ccc(S(=O)(=O)O)c3cc(S(=O)(=O)O)cc(S(=O)(=O)O)c23)cc1NC(=O)c1cccc(NC(=O)Nc2cccc(C(=O)Nc3cc(C(=O)Nc4ccc(S(=O)(=O)O)c5cc(S(=O)(=O)O)cc(S(=O)(=O)O)c45)ccc3C)c2)c1`, the T/C by setting is: (dose: 25.0 mg/kg/injection, schedule: Q01DX005 (ip), vehicle: saline) 106 % of control; (dose: 50.0 mg/kg/injection, schedule: Q01DX005 (ip), vehicle: saline) 95 % of control.

As for `O=c1[nH]c2ccccc2nc1C1(F)CCCC1`, the T/C under setting [5] was 98 % of control, the T/C under setting [6] was 92 % of control and the T/C under setting [7] was 89 % of control.

For `CCN(CC)CCNc1ccc([N+](=O)[O-])c2sc3ccccc3c(=O)c12`, the T/C was 104 % of control (dose: 6.25 mg/kg/injection, schedule: Q01DX009 (ip), vehicle: saline); 112 % of control under setting [8]; 180 % of control (dose: 33.0 mg/kg/injection, schedule: Q01DX009 (ip), vehicle: saline); 220 % of control under setting [9]; 115 % of control (dose: 75.0 mg/kg/injection, schedule: Q01DX009 (ip), vehicle: saline); 158 % of control (dose: 100.0 mg/kg/injection, schedule: Q01DX009 (ip), vehicle: saline with Tween-80).

As to `CNC(=O)N(N=O)c1[nH]c(=O)ncc1Br`, the T/C by setting is: under setting [1], 104 % of control; under setting [2], 108 % of control; under setting [3], 118 % of control.

On to `CC(C)Cn1cnc2c(=S)nc(N)[nH]c21`, for which the T/C was 95 % of control (dose: 8.0 mg/kg/injection, schedule: Q01DX009 (ip), vehicle: saline with Tween-80); 100 % of control (dose: 16.0 mg/kg/injection, schedule: Q01DX009 (ip), vehicle: saline with Tween-80); 100 % of control (dose: 32.0 mg/kg/injection, schedule: Q01DX009 (ip), vehicle: saline with Tween-80); 90 % of control (dose: 64.0 mg/kg/injection, schedule: Q01DX009 (ip), vehicle: saline with Tween-80); 109 % of control (dose: 100.0 mg/kg/injection, schedule: Q04DX003 (ip), vehicle: saline with Tween-80); 100 % of control (dose: 264.0 mg/kg/injection, schedule: Q04DX003 (ip), vehicle: saline with Tween-80). For the same molecule, the T/C is 112 % of control (dose: 400.0 mg/kg/injection, schedule: Q04DX003 (ip), vehicle: saline with Tween-80) and 116 % of control (dose: 600.0 mg/kg/injection, schedule: Q04DX003 (ip), vehicle: saline with Tween-80).
